From patent US20250084039A1, “4-SUBSTITUTED AMINOISOQUINOLINE DERIVATIVES” (Purdue Research Foundation, priority 2016, published 2025) come the findings set out here.

In test [1] the target is TRKC (Homo sapiens (Human), UniProt Q16288). The test is described as follows: Reaction Biology HotSpot kinase assay. It is filed as biochemical. Particulars: 500 nM compound, 100 μM radiolabeled ATP. The protocol: (§1) The Reaction Biology Corporation (www.reactionbiology.com, Malvern, PA) HotSpot assay platform was used to measure kinase/inhibitor interactions exactly as previously described. Kinase and substrate were mixed in a buffer containing 20 mM HEPES pH 7.5, 10 mM MgCl2, 1 mM EGTA, 0.02% Brij35, 0.02 mg/mL BSA, 0.1 mM Na3VO4, 2 mM DTT and 1% DMSO. Single-dose of compounds (500 nM) were then added to each reaction mixture. After 20-minute incubation. ATP (Sigma) and [γ-^33P] ATP (Perkin Elmer) were added at a final total concentration of 100 μM for addition 2 hours at room temperature, followed by spotting onto P81 ion exchange cellulose chromatography paper (Whatman, Inc.). […] Percent remaining kinase activity of a vehicle (DMSO) containing kinase reaction was calculated for each kinase/inhibitor pair using Prism 5 (GraphPad).
as §1, with “1” for “DTT”, “incubation,” for “incubation.”

Test [2] deals with c-kit (Homo sapiens (Human), UniProt P10721). As to the kind of experiment: Reaction Biology HotSpot kinase assay. The test is classed as biochemical. Particulars: 500 nM compound, 100 μM radiolabeled ATP. Here is the method:
as §1
as §1, with “1” for “DTT”, “incubation,” for “incubation.”

Test [3] relates to MV4-11. The test is described as follows: Anti-proliferative effects in leukemia panel. It is filed as cell-based. Particulars: for IC50: Homo sapiens, MV4-11, read-out: Anti-proliferative effects in leukemia panel (μM) MV4-11. Here is the method:
Molm-14 cells were the kind gift of Dr. Mark Levis from Johns Hopkins University. […] Cell lines were grown and maintained according to ATCC recommendations.
(§2) Cell lines were seeded into 96-well plates the afternoon prior to treatment. Approximately 18 hours later, compounds were semi-serially diluted in dimethyl sulfoxide (DMSO) and then growth medium, and added to cells. Plates were incubated for 72 hours prior to addition of Alamar Blue (Life Technologies. Carlsbad, CA). Plates were read after 4 additional hours of incubation at 37° C. using a Bio-Tek Synergy HT plate reader (Bio-Tek, Winooski. VT). Data was analyzed and graphed using GraphPad Prism Software (Graphpad. La Jolla, CA).

Test [4] deals with MOLM14. As to the kind of experiment: Anti-proliferative effects in leukemia panel. It is filed as cell-based. The conditions noted are these: Homo sapiens, MOLM-14. The protocol:
Molm-14 cells were the kind gift of Dr. Mark Levis from Johns Hopkins University. THP-1, MV4-11, K-562 and MRC-5A cells were purchased from ATCC (ATCC, Manassas, VA). All cell lines were grown in 37° C. with 5% CO2 atmosphere with RPMI 1640 (Life technologies, Carlsbad. CA) supplemented with heat-inactivated 10% (V/V) fetal bovine serum. Cell lines were grown and maintained according to ATCC recommendations.
as §2

Test [5] has as its system MV4-11. As to the kind of experiment: Activity against AML cell line MV4-11 (CellTiter-Blue, 72 h). The test is classed as cell-based. The protocol:
Cells were added to 96 well plates at 2000 cells per well for adherent lines and 4000 cells per well for suspension lines and kept in an incubator overnight. The following day the plates were treated with compounds to give rise to the final concentrations of; 100 μM, 10 μM, 5 μM 1 μM, 500 nM, 100 nM, 10 nM, […]. The plates were then stored in the incubator for 72 hours. On the third day the cells were assayed with 20 μL of CellTiter—Blue Cell Viability Assay per well and were incubated for 4 hours. After 4 hours' fluorescence intensity was taken on a plate reader: Excitation: 560/10 Emission: 590/10. IC50 analysis was performed on GraphPad Prism 7.

Test [6] concerns MV-4-11. As to the kind of experiment: Proliferation inhibition at single concentration (CellTiter-Blue). It is filed as cell-based. The conditions noted are these: 1 μM compound. (The colour change of resazurin is a common sign of viable cells or microbes.)
The subject of test [7] is HCT116. Described as above. It is filed as cell-based. Particulars: 1 μM compound.
In test [8] the test system is HeLa. The description is as above. It is filed as cell-based. The conditions noted are these: 1 μM compound. Here is the method:
(§3) Plates were then treated with compound diluted in dimethyl sulfoxide (DMSO) as well as a DMSO control the following day for 72 hours. After this time the plates were then treated with 10 μL of CellTiter-Blue Cell Viability Assay (Promega, Madison, WI) for 4 hours. Then the plates were read on a plate reader (Bio-Tek, Winooski, VT). Data was analyzed on Excel as a percent of the DMSO vehicle.
(§4) Antiproliferative activities against AML cell line, MV4-11 (a FLT3-driven cell line) and three other solid tumors (MCF7, breast, HCT116, colon and HeLa) have been investigated (Tables 6A and 6B and FIG. 10).

Test [9] relates to MCF-7. The description is as above. It is filed as cell-based. Particulars: 1 μM compound. The protocol: as §3, §4
[10] abbreviates: 72 h, read-out: IC50 against MV4-11/uM.
The mark [11] stands for this setting: FIG. 1, read-out: anticancer activities (IC50) against MV4-11.
[12] abbreviates: Table 2, read-out: IC50 (nM) against MV4-11 (AML cell line).

Sequence of c-kit (P10721 26-976): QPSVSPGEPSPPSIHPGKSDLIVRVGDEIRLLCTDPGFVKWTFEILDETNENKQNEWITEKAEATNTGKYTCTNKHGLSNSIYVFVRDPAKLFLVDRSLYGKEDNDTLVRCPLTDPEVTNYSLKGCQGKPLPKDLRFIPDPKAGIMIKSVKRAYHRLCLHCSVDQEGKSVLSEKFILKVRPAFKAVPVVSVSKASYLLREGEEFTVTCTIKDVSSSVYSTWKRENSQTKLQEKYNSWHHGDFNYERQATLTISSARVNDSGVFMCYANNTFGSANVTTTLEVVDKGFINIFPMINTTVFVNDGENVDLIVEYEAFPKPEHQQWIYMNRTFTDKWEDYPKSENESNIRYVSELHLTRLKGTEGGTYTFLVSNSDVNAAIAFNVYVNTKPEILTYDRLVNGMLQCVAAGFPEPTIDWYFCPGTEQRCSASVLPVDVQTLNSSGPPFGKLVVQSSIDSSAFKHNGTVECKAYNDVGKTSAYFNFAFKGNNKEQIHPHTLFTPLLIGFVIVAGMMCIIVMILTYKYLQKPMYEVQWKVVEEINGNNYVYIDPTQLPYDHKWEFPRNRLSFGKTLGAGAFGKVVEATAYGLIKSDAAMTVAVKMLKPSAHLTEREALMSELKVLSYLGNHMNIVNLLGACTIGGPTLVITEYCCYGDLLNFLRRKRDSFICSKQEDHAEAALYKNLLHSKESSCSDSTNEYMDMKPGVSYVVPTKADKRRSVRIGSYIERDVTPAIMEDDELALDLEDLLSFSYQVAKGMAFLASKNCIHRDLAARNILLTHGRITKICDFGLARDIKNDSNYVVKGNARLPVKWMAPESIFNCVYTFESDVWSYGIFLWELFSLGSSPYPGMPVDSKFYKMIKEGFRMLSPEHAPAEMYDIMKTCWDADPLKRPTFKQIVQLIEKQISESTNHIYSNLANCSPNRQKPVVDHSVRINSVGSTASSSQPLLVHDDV
Sequence of TRKC (Q16288 32-839): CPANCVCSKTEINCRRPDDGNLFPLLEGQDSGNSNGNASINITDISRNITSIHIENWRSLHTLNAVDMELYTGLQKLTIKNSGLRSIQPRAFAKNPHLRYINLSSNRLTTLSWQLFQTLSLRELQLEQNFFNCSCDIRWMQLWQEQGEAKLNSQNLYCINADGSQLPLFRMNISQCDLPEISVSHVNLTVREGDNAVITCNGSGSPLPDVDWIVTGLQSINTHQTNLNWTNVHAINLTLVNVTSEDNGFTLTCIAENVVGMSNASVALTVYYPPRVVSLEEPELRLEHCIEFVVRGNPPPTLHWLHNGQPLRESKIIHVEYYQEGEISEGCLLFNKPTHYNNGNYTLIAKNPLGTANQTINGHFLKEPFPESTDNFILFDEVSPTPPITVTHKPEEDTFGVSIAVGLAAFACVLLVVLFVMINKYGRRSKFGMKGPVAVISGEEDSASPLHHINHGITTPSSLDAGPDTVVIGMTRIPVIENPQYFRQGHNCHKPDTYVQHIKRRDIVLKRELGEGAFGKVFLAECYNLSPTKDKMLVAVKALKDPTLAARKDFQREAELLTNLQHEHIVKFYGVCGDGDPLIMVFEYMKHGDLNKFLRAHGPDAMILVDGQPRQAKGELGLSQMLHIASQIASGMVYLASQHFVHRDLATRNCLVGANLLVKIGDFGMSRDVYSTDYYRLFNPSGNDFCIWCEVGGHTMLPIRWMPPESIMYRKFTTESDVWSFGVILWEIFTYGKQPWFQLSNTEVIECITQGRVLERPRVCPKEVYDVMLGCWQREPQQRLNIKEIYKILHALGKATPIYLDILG

`Nc1nccc(Cl)c1C#Cc1ccc(C2=NCCN2)cc1` [HSM1798]: the inhibition – broadly, how much of the control response was suppressed – at 0.5 µM is 11% in test [1] and 15% in test [2]. Besides, the “anti-proliferative activity in words, MV4-11 / AML cell lines” value in test [3] is given as “ineffective”. Further, the IC50 in test [3] and in [4] was > 5 µM each time.
For the compound `CN1CCN(Cc2ccc(NC(=O)c3ccc(C#Cc4c(N)ncc5ccc(Cl)cc45)cc3)cc2)CC1` [HSM1661], in test [5] (setting [10]), the IC50 turned out to be 0.016 µM. Further, in test [6], the “Percent inhibition of proliferation MV-4-11” value is listed as 90%. The “Percent inhibition of proliferation HCT116” value in test [7] came to 0%. Further, in [8], the “Percent inhibition of proliferation HeLa” value turned out to be 1%. Besides, the “Percent inhibition of proliferation MCF-7” value in test [9] turned out to be 96%.
Regarding `CN(C)CCCNC(=O)c1cccc(C#Cc2c(N)ncc3ccc(Cl)cc23)c1` [HSM1688], the IC50 in test [5] (setting [10]) and in test [5] (setting [11]) was 0.25 µM throughout. In test [6], the “Percent inhibition of proliferation MV-4-11” value is 74%. The “Percent inhibition of proliferation HCT116” value in test [7] stood at 43%. For the same compound, the “Percent inhibition of proliferation HeLa” value in test [8] is recorded as 64%. The “Percent inhibition of proliferation MCF-7” value in test [9] is 33%.
Take `Nc1ncc2ccc(Cl)cc2c1C#Cc1ccc(C(=O)NCCCN2CCCCC2)cc1` [HSM1683]: the IC50 in test [5] (setting [10]) turned out to be 0.003 µM; in [5] (setting [12]) it was 0.0421 ± 0.0013 µM. Besides, in test [6], the “Percent inhibition of proliferation MV-4-11” value came to 95%. Further, the “Percent inhibition of proliferation HCT116” value in [7] is recorded as 10%. Besides, in test [8], the “Percent inhibition of proliferation HeLa” value turned out to be 49%. In test [9], the “Percent inhibition of proliferation MCF-7” value came out at 57%.
For `Nc1ncc2[nH]ccc2c1C#Cc1ccc(C2=NCCN2)cc1` [HSM1781], in [3], the “anti-proliferative activity in words, MV4-11 / AML cell lines” value is recorded as “ineffective” and the IC50 was > 5 µM. The IC50 in [4] is > 5 µM.
As to `Nc1ccc(CCNC(=O)c2ccc(C#Cc3c(N)ncc4ccc(Cl)cc34)cc2)cc1` [HSN136], the IC50 in test [5] (setting [10]) was 0.095 µM. The “Percent inhibition of proliferation MV-4-11” value in test [6] came out at 86%. Besides, the “Percent inhibition of proliferation HCT116” value in test [7] worked out at 38%. Also, the “Percent inhibition of proliferation HeLa” value in [8] is listed as 0%. In test [9], the “Percent inhibition of proliferation MCF-7” value was determined as 33%.
With `Nc1ncc2ccc(Cl)cc2c1C#Cc1ccc(C(=O)N[C@H]2CC[C@H](N)CC2)cc1.O=C(O)C(F)(F)F` [HSN129], in test [5] (setting [10]), the IC50 was 0.008 µM. Further, the “Percent inhibition of proliferation MV-4-11” value in test [6] amounted to 99%. Besides, the “Percent inhibition of proliferation HCT116” value in test [7] was found to be 29%. Moreover, the “Percent inhibition of proliferation HeLa” value in test [8] worked out at 22%. For the same compound, the “Percent inhibition of proliferation MCF-7” value in test [9] is given as 37%.
Consider “(E)-4-(2-(3-amino-6-chloroisoquinolin-4-yl)vinyl)-N-hydroxybenzimidamide [HSM1859]”, for which the “% inhibition of TrkC” value in [1] stood at 42%. For the same compound, the “% inhibition of c-Kit” value in test [2] is listed as 62%.
As for `N#Cc1cccc(C#Cc2c(N)ncc3ccc(Cl)cc23)c1` [HSM1617], the IC50 in test [5] (setting [10]) amounted to 0.77 µM.
On to `Nc1ncc2ccc(Cl)cc2c1C#Cc1ccc(C(=O)NCCCN2CCCC2)cc1` [HSM1673], for which the results for the IC50 in test [5] (setting [10]) and in test [5] (setting [12]) were 0.011 µM and 0.025 ± 0.0014 µM, respectively. Moreover, the “Percent inhibition of proliferation MV-4-11” value in [6] is listed as 98%. In test [7], the “Percent inhibition of proliferation HCT116” value is reported as 28%. The “Percent inhibition of proliferation HeLa” value in [8] is listed as 38%. In addition, in [9], the “Percent inhibition of proliferation MCF-7” value worked out at 56%.
As for `CC(C)(C)c1cc(NC(=O)Nc2ccc(-c3cn4c(n3)sc3cc(OCCN5CCOCC5)ccc34)cc2)no1` [Quizartinib, quizartinib, reference compound], the IC50 in test [3] and in test [4] was 0.001 ± 0.001 µM in each case.
On to `CN(C)CCCCCNC(=O)c1ccc(C#Cc2c(N)ncc3ccc(Cl)cc23)cc1` [HSM1684], for which the IC50 in test [5] (setting [10]) and in [5] (setting [11]) was 0.071 µM each time.
With `Nc1ncc2ccc(Cl)cc2c1C#Cc1ccc(C(=O)N2CCC(N3CCCCC3)CC2)cc1` [HSN135], in test [5] (setting [10]), the IC50 worked out at 0.033 µM. Also, the “Percent inhibition of proliferation MV-4-11” value in [6] stood at 100%. For the same compound, the “Percent inhibition of proliferation HCT116” value in [7] is given as 21%. For the same compound, the “Percent inhibition of proliferation HeLa” value in [8] was 0%. In addition, the “Percent inhibition of proliferation MCF-7” value in test [9] was 35%.
In the case of `Nc1ncc2ccc(Cl)cc2c1C#Cc1ccc(C(=O)NCC(O)CN2CCCCC2)cc1` (centres unmarked) [HSM1725], the IC50 in test [5] (setting [10]) turned out to be 0.008 µM.
For the compound `Nc1ncc2ccc(Cl)cc2c1C#Cc1ccccc1C(=O)NCCCN1CCCCC1` [HSM1717], the IC50 in test [5] (setting [10]) was determined as 0.05 µM. Besides, the “Percent inhibition of proliferation MV-4-11” value in test [6] is recorded as 82%. For the same compound, the “Percent inhibition of proliferation HCT116” value in test [7] is 33%. For the same compound, the “Percent inhibition of proliferation HeLa” value in test [8] is listed as 2%. In addition, the “Percent inhibition of proliferation MCF-7” value in test [9] is listed as 76%.
For the compound `COCCCNC(=O)c1ccc(C#Cc2c(N)ncc3ccc(Cl)cc23)cc1` [HSM1692], the IC50 in test [5] (setting [10]) and in [5] (setting [11]) was 0.45 µM throughout. In addition, the “Percent inhibition of proliferation MV-4-11” value in test [6] was determined as 81%. In addition, in [7], the “Percent inhibition of proliferation HCT116” value worked out at 29%. The “Percent inhibition of proliferation HeLa” value in test [8] was 0%. Besides, in test [9], the “Percent inhibition of proliferation MCF-7” value came out at 22%.
Take `CN1CCN(CCCNC(=O)c2ccc(C#Cc3c(N)ncc4ccc(Cl)cc34)cc2)CC1` [HSM1674]: the IC50 in test [5] (setting [10]) was determined as 0.11 µM. Also, the “Percent inhibition of proliferation MV-4-11” value in [6] is listed as 93%. For the same compound, in [7], the “Percent inhibition of proliferation HCT116” value stood at 14%. Further, in test [8], the “Percent inhibition of proliferation HeLa” value is reported as 8%. Further, the “Percent inhibition of proliferation MCF-7” value in test [9] is listed as 36%.
For `CN(CCCN1CCCCC1)C(=O)c1ccc(C#Cc2c(N)ncc3ccc(Cl)cc23)cc1` [HSN105] the same measures were 0.061 µM, 88%, 40%, 1% and 12%.
The matching figures for `Nc1ncc2ccc(Cl)cc2c1C#Cc1ccc(C(=O)NCCN2CCCCC2)cc1` [HSN137]: 0.006 µM, 99%, 60%, 20% and 74%.
For `O=C(NCCCN1CCCCC1)c1ccc(C#Cc2cncc3ccccc23)cc1` [HSM1690], in test [5] (setting [10]), the IC50 was determined as 3.09 µM.
Take `CC(C)(C)OC(=O)N1CCN(CCCNC(=O)c2ccc(C#Cc3c(N)ncc4ccc(Cl)cc34)cc2)CC1` [HSM1693]: the figures for the IC50 in test [5] (setting [10]) and in test [5] (setting [12]) were 0.03 µM and 0.0148 ± 0.0014 µM, respectively.
With `CN(C)CCNC(=O)c1ccc(C#Cc2c(N)ncc3ccc(Cl)cc23)cc1` [HSM1669], the IC50 in [5] (setting [10]) and in test [5] (setting [11]) was 0.26 µM each time. In test [6], the “Percent inhibition of proliferation MV-4-11” value stood at 83%. The “Percent inhibition of proliferation HCT116” value in [7] is reported as 46%. Besides, the “Percent inhibition of proliferation HeLa” value in [8] is 20%. In addition, the “Percent inhibition of proliferation MCF-7” value in test [9] came to 98%.
